From ChEMBL document CHEMBL4765228, “Indole-like Trk receptor antagonists” (Eur J Med Chem, 2016)
The source made the active and inactive calls. No cut-off for these calls is given here.

Assays:
[1] = molecular target: Serine/threonine-protein kinase N2 (Homo sapiens) (UniProt Q16513); test: Inhibition of human PRK2 assessed as residual activity at 0.1 uM relative to control
[2] = molecular target: Mitogen-activated protein kinase 14 (Homo sapiens) (UniProt Q16539); test: Inhibition of human p38-alpha assessed as residual activity at 1 uM relative to control
Chain of Mitogen-activated protein kinase 14 (Homo sapiens) (Q16539 whole entry): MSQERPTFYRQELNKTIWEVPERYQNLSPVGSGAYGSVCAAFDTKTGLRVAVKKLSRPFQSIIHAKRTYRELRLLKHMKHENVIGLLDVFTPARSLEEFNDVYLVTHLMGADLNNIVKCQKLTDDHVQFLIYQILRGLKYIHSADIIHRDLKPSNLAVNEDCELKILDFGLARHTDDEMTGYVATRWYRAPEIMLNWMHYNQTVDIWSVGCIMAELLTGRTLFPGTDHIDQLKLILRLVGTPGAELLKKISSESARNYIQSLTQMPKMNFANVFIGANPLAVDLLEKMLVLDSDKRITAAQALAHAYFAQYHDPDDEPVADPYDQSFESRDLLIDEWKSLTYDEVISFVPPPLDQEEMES

[3] = molecular target: Receptor tyrosine-protein kinase erbB-4 (Homo sapiens) (UniProt Q15303); test: Inhibition of human ERBB4 assessed as residual activity at 0.1 uM relative to control
[4] = molecular target: Calcium/calmodulin-dependent protein kinase kinase 2 (Homo sapiens) (UniProt Q96RR4); test: Inhibition of human CAMKK2 assessed as residual activity at 1 uM relative to control
Chain of Calcium/calmodulin-dependent protein kinase kinase 2 (Homo sapiens) (Q96RR4 2-588 limits assumed): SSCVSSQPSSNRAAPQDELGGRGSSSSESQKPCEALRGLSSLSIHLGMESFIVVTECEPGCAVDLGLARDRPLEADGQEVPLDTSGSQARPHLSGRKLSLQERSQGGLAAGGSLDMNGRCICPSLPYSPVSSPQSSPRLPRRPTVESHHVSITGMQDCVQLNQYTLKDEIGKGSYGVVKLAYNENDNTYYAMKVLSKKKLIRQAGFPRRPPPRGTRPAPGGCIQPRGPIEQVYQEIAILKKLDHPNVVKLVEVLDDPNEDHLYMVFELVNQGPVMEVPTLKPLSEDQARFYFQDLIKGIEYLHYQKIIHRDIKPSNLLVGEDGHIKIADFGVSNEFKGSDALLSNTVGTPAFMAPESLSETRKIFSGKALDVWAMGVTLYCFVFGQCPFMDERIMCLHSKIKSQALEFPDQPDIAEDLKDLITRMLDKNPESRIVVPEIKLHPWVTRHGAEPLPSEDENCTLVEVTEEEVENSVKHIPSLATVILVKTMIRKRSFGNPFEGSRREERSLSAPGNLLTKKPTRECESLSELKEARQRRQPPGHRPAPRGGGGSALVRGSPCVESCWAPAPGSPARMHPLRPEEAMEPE

[5] = molecular target: Dual specificity tyrosine-phosphorylation-regulated kinase 1A (Homo sapiens) (UniProt Q13627); test: Inhibition of human DYRK1A assessed as residual activity at 1 uM relative to control
[6] = molecular target: 5'-AMP-activated protein kinase catalytic subunit alpha-1 (Homo sapiens) (UniProt Q13131); test: Inhibition of human AMPKalpha1 (1 to 550 residues assessed as residual activity at 0.1 uM relative to control
[7] = molecular target: High affinity nerve growth factor receptor (Rattus norvegicus) (UniProt P35739); test: Inhibition of TrkA phosphorylation in rat PC12 cells at 1 uM after 5 mins in presence of NGF by Western blot analysis; assay type: cell-based; settings: PC-12
[8] = molecular target: T1, Serine/threonine-protein kinase D1 (Homo sapiens) (UniProt Q15139); test: Inhibition of human PKCmu assessed as residual activity at 1 uM relative to control
T1 sequence (whole entry): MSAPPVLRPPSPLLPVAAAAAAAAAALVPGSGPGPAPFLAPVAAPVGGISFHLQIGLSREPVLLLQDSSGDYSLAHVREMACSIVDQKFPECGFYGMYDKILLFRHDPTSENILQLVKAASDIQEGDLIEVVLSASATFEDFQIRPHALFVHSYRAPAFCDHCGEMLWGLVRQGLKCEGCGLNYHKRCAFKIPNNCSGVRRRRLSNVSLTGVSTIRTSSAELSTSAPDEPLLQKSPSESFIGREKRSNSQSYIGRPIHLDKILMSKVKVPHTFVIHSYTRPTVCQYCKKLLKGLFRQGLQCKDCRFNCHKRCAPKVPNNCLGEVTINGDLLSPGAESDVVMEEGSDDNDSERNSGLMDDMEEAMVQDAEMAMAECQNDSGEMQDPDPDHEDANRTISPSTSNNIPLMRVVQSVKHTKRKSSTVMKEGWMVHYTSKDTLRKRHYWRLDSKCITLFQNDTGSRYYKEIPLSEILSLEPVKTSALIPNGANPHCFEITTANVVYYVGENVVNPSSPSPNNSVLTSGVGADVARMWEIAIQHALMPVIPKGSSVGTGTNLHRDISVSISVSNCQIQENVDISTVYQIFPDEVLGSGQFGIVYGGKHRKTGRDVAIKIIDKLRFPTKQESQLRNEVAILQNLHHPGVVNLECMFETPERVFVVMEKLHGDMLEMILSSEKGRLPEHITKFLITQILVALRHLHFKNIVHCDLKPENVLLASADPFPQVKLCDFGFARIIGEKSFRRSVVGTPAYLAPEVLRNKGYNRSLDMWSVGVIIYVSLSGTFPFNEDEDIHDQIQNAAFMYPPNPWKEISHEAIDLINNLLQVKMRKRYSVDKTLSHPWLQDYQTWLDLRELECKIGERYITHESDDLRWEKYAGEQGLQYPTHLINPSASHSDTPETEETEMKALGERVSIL

[9] = molecular target: Serine/threonine-protein kinase pim-1 (Homo sapiens) (UniProt P11309); test: Inhibition of human PIM1 assessed as residual activity at 0.1 uM relative to control
[10] = molecular target: Mitogen-activated protein kinase 8 (Homo sapiens) (UniProt P45983); test: Inhibition of human JNK1 assessed as residual activity at 1 uM relative to control
Chain of Mitogen-activated protein kinase 8 (Homo sapiens) (P45983 whole entry): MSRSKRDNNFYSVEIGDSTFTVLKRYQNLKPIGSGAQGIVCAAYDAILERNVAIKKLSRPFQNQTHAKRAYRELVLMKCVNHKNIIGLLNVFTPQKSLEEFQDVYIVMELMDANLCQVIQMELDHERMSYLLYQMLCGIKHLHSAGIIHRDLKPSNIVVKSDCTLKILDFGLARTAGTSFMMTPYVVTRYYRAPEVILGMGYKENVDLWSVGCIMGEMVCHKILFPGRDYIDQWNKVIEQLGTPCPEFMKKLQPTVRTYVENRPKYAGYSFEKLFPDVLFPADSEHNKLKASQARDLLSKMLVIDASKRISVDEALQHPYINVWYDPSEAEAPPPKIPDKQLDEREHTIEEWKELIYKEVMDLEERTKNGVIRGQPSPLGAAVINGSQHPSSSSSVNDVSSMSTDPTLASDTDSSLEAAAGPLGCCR

[11] = molecular target: Serine/threonine-protein kinase Nek6 (Homo sapiens) (UniProt Q9HC98); test: Inhibition of human NEK6 assessed as residual activity at 0.1 uM relative to control
Chain of Serine/threonine-protein kinase Nek6 (Homo sapiens) (Q9HC98 whole entry): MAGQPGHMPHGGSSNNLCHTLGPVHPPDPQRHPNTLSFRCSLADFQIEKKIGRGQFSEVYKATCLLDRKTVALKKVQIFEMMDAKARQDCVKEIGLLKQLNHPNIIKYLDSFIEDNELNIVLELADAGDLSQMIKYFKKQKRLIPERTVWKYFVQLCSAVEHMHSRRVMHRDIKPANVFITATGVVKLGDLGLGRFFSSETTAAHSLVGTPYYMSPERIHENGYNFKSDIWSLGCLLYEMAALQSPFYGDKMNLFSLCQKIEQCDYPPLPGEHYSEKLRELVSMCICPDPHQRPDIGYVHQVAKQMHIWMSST

Homo sapiens = species on record: Homo sapiens; test: Inhibition of human S6K assessed as residual activity at 1 uM relative to control
[12] = molecular target: Homeodomain-interacting protein kinase 2 (Homo sapiens) (UniProt Q9H2X6); test: Inhibition of human HIPK2 assessed as residual activity at 1 uM relative to control
Chain of Homeodomain-interacting protein kinase 2 (Homo sapiens) (Q9H2X6 whole entry, looked up, the tested form may be a part): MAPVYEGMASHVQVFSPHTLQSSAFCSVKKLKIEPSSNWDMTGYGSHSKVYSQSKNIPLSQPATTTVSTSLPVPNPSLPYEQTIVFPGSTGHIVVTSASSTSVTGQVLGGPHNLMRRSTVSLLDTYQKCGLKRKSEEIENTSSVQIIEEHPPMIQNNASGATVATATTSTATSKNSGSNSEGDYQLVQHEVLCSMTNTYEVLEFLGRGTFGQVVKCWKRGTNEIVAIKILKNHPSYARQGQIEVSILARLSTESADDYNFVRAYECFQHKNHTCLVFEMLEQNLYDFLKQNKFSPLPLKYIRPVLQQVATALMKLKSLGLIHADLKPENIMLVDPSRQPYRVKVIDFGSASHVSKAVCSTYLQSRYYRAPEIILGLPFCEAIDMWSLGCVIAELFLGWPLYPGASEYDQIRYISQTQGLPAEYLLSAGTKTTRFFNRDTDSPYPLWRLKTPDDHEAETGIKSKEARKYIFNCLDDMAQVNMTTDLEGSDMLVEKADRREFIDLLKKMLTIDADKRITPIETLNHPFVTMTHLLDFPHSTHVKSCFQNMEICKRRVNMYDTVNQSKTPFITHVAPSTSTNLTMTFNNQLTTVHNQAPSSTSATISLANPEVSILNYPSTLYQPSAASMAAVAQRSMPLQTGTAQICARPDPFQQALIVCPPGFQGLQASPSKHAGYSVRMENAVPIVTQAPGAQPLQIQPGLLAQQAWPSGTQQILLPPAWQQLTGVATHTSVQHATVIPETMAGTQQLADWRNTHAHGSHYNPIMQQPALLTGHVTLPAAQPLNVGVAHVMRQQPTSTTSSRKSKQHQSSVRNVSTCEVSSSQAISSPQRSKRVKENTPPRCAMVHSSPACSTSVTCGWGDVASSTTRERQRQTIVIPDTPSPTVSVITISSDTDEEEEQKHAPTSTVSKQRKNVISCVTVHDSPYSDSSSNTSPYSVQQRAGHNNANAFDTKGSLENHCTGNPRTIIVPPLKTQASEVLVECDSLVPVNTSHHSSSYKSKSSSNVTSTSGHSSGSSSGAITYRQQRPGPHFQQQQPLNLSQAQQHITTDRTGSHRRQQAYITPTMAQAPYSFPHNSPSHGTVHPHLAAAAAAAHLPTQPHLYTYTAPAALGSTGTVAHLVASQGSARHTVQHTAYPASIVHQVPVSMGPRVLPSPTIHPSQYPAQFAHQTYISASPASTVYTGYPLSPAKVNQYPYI

[13] = molecular target: RAC-alpha serine/threonine-protein kinase (Homo sapiens) (UniProt P31749); test: Inhibition of human AKT1 (104 to 408 residues) assessed as residual activity at 1 uM relative to control
Chain of RAC-alpha serine/threonine-protein kinase (Homo sapiens) (P31749 whole entry, the tested form may be a part): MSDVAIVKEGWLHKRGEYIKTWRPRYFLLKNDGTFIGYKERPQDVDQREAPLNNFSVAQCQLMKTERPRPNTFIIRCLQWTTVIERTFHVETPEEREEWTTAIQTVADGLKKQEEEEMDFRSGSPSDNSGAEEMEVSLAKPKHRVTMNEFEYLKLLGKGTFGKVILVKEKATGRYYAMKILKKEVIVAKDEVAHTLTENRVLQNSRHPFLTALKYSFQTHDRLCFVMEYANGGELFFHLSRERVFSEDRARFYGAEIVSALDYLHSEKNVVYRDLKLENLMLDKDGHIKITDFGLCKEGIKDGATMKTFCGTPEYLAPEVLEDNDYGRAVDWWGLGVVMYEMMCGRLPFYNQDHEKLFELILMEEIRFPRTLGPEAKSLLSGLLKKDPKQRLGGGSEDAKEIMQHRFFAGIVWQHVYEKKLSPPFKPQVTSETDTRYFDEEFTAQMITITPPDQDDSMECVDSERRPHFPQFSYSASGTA

[14] = molecular target: Tyrosine-protein kinase Lck (Homo sapiens) (UniProt P06239); test: Inhibition of human LCK assessed as residual activity at 1 uM relative to control
Chain of Tyrosine-protein kinase Lck (Homo sapiens) (P06239 2-509 limits assumed): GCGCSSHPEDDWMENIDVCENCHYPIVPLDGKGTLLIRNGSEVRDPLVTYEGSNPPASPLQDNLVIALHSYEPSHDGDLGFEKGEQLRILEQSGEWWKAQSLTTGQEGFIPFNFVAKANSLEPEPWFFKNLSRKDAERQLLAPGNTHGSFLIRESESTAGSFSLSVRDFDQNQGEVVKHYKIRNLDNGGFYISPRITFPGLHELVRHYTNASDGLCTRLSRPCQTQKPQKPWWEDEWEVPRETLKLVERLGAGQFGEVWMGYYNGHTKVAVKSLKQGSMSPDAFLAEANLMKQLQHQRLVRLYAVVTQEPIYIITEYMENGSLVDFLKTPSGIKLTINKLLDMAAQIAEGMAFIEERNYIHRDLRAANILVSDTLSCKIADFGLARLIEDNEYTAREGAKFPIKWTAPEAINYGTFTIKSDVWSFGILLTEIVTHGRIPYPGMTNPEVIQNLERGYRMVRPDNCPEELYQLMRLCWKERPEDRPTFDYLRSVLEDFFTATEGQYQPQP

[15] = molecular target: Casein kinase I isoform delta (Homo sapiens) (UniProt P48730); test: Inhibition of human CK1-delta assessed as residual activity at 1 uM relative to control
Chain of Casein kinase I isoform delta (Homo sapiens) (P48730 whole entry, looked up, canonical isoform): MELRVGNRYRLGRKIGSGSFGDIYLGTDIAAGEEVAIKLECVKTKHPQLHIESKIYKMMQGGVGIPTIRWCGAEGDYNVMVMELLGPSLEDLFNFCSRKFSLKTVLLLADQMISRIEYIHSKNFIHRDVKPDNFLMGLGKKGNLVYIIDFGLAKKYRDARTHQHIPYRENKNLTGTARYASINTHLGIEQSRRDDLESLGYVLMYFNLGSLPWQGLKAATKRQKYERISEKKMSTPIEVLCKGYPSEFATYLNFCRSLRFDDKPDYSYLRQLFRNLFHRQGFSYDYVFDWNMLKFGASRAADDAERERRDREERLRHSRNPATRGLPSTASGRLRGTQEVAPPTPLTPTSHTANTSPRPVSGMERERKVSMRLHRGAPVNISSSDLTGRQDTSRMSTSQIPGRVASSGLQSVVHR

[16] = molecular target: T2, Interleukin-1 receptor-associated kinase 4 (Homo sapiens) (UniProt Q9NWZ3); test: Inhibition of human untagged IRAK4 assessed as residual activity at 0.1 uM relative to control
T2 sequence (whole entry): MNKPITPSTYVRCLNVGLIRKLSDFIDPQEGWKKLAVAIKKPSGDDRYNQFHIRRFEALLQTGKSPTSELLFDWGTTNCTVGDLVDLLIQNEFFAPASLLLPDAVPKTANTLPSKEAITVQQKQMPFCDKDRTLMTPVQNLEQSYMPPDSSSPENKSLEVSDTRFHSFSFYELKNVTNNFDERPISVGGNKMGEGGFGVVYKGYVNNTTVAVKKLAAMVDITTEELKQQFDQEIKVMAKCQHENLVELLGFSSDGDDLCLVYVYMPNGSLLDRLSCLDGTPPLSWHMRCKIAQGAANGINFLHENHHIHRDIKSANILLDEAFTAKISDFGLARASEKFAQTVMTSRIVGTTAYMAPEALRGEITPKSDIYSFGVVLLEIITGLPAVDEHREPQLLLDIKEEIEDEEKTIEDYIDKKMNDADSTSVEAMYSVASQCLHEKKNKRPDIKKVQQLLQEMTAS

[17] = molecular target: MAP/microtubule affinity-regulating kinase 3 (Homo sapiens) (UniProt P27448); test: Inhibition of human MARK3 assessed as residual activity at 0.1 uM relative to control
[18] = molecular target: 3-phosphoinositide-dependent protein kinase 1 (Homo sapiens) (UniProt O15530); test: Inhibition of human PDK1 assessed as residual activity at 1 uM relative to control
Chain of 3-phosphoinositide-dependent protein kinase 1 (Homo sapiens) (O15530 whole entry, looked up, the tested form may be a part): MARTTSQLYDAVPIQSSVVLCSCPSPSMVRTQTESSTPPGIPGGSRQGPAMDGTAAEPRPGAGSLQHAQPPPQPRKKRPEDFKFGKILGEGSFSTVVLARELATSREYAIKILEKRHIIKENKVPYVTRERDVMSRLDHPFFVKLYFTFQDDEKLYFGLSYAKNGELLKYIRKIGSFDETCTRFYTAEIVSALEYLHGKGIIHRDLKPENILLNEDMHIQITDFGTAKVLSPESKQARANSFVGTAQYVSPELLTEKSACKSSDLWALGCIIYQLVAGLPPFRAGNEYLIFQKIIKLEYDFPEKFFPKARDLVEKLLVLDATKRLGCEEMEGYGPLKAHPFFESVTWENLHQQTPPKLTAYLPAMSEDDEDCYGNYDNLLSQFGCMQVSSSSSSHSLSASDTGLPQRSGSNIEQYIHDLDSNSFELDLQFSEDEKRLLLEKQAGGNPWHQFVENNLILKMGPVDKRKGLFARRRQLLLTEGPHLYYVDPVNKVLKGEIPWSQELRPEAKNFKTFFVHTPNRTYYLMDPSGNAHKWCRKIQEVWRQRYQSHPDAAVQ

[19] = molecular target: RAC-alpha serine/threonine-protein kinase (Homo sapiens) (UniProt P31749); test: Inhibition of human AKT1 (104 to 408 residues) assessed as residual activity at 0.1 uM relative to control
[20] = molecular target: High affinity nerve growth factor receptor (Homo sapiens, UniProt P04629); test: Inhibition of human TRKA assessed as residual activity at 1 uM relative to control
[21] = molecular target: Serine/threonine-protein kinase Nek6 (Homo sapiens) (UniProt Q9HC98); test: Inhibition of human NEK6 assessed as residual activity at 1 uM relative to control

Compound	Activity [1]	Activity [2]	Activity [3]	Activity [4]	Activity [5]	Activity [6]	Activity [8]	Activity [9]	Activity [10]	Activity [11]	Activity (Homo sapiens)	Activity [12]	Activity [13]	Activity [14]	Activity [15]	Activity [16]	Activity [17]	Activity [18]	Activity [19]	Activity [20]	further results
COc1ccc2c(c1)c(/C=C1\C(=O)Nc3ccc(S(N)(=O)=O)cc31)cn2C	98%	100%	101%	19%	99%	94%	91%	96%	95%	106%	92%	81%	96%	32%	84%	12%	96%	75%	92%	1%	inhibition [7]: Active; Activity [21]: 98%
COc1ccc2c(c1)c(/C=C1\C(=O)Nc3ccc(S(=O)(=O)N(C)C)cc31)cn2C	108%	97%	103%	30%	94%	98%	92%	104%	100%	100%	85%	85%	93%	64%	86%	91%	93%	84%	101%	6%	inhibition [7]: Active; Activity [21]: 100%
CN(C)S(=O)(=O)c1ccc2c(c1)/C(=C/c1cn(C)c3ccc(O)cc13)C(=O)N2	91%	96%	110%	25%	101%	103%	89%	102%	97%	104%	92%	96%	105%	33%	87%	68%	103%	83%	105%	2%	Activity [21]: 103%
CNS(=O)(=O)c1ccc2c(c1)/C(=C/c1cn(C)c3ccc(OC)cc13)C(=O)N2	90%	99%	98%	50%	95%	104%	93%	94%	112%	99%	83%	102%	98%	41%	91%	59%	100%	123%	93%	3%	inhibition [7]: Active; Activity [21]: 97%
Cn1cc(/C=C2\C(=O)Nc3ccc(S(N)(=O)=O)cc32)c2ccccc21	94%	104%	94%	25%	114%	83%	91%	105%	94%	111%	81%	103%	97%	50%	82%	6%	93%	70%	92%	2%	Activity [21]: 109%
COc1ccc2[nH]cc(/C=C3\C(=O)Nc4ccc(S(N)(=O)=O)cc43)c2c1	96%	93%	94%	31%	96%	101%	72%	103%	87%	117%	70%	84%	101%	61%	79%	45%	101%	66%	115%	0%	Activity [21]: 108%
